≈ marks a conversion by molar mass, not a printed value. Read-outs that look alike come from different tables or passages of the source.
How the values were obtained:
[1] = DSC of DSPG bilayers with inhibitor; format: physicochemical; conditions: for Tm (main transition) / ΔH / ΔT1/2: 10 wt % inhibitor, PBS pH 7.4, heating; for Broadening of main transition peak ΔΤ1/2 compared to pure DSPG / Decrease of Tm compared to DSPG alone: heating
[2] = rat, in vivo; cited from earlier work
M. tuberculosis HN878 = M. tuberculosis HN878 growth inhibition; format: cell-based, Mycobacterium tuberculosis
[3] = [14C-SQ109], mice; cited from earlier work
in vitro [4] = conditions: human
M. tuberculosis Erdman = M. tuberculosis Erdman growth inhibition; format: cell-based, Mycobacterium tuberculosis
[5] = test system: M. abscessus strain PIPD1^R1 (A309P mutation in MmpL3)
[6] = test system: L. mexicana promastigotes; assay: L. mexicana promastigote growth inhibition; format: cell-based, Leishmania mexicana
[7] = DSC of DMPC bilayers with inhibitor; format: physicochemical; conditions: for Tm (main transition) / ΔH / ΔT1/2: 10 wt % inhibitor, PBS pH 7.4, heating; for Decrease of Tm compared to DMPC without inhibitor: heating
[8] = test system: T. cruzi Dm28c intracellular amastigotes; assay: T. cruzi intracellular amastigote inhibition; format: cell-based, Trypanosoma cruzi; conditions: read-out: T. cruzi IC50 (PAR)
[9] = test system: Plasmodium falciparum asexual blood stages; assay: P. falciparum asexual blood stage; format: cell-based
[10] = test system: L. donovani promastigotes; assay: L. donovani promastigote growth inhibition; format: cell-based, Leishmania donovani; conditions: read-out: L. donovani IC50
[11] = test system: T. brucei bloodstream forms; assay: T. brucei bloodstream form growth inhibition; format: cell-based, Trypanosoma brucei; conditions: read-out: T. brucei IC50
[12] = molecular target: M. tuberculosis MmpL3 (MtMmpL3) (Mycobacterium tuberculosis, UniProt P9WJV5); assay: Surface plasmon resonance binding to MmpL3
M. tuberculosis H37Rv = M. tuberculosis H37Rv growth inhibition; format: cell-based, Mycobacterium tuberculosis
[13] = test system: T. cruzi Dm28c epimastigotes; assay: T. cruzi epimastigote growth inhibition; format: cell-based, Trypanosoma cruzi; conditions: read-out: T. cruzi IC50 (EPI)
Bacillus subtilis = assay: B. subtilis growth inhibition; format: cell-based; conditions: Bacillus subtilis, read-out: Bs IC50
M. smegmatis = M. smegmatis cell growth inhibition; format: cell-based, Mycobacterium smegmatis
[14] = test system: M. abscessus smooth variant; assay: microbe, parasite or virus in culture; format: cell-based; conditions: for MIC: Mycobacteroides abscessus
[15] = dog, in vivo; cited from earlier work
[16] = test system: M. abscessus rough variant; assay: microbe, parasite or virus in culture; format: cell-based
E. coli = E. coli growth inhibition; format: cell-based, Escherichia coli; conditions: read-out: Ec IC50
in vitro [17] = conditions: human; remark: listed apart in the source
[18] = test system: HepG2 (human hepatocellular carcinoma) cells; assay: HepG2 cell line viability; conditions: 20 μM
[19] = Rat liver microsome stability; conditions: rat liver microsomes
[20] = Mice liver microsome stability; conditions: mice microsomes
[21] = Human liver microsome stability
U2OS host cells = assay: U2OS host cell growth inhibition; conditions: read-out: T. cruzi CC50 (U20S)
[22] = test system: M. abscessus strain PIPD1^R1 (A309P mutation in MmpL3); conditions: cited from earlier work
[23] = read-out: L. mexicana IC50, promastigotes
[24] = read-out: PfABS IC50 (μM ± S.E.), asexual blood stages

Sequence of M. tuberculosis MmpL3 (MtMmpL3) (P9WJV5 whole entry): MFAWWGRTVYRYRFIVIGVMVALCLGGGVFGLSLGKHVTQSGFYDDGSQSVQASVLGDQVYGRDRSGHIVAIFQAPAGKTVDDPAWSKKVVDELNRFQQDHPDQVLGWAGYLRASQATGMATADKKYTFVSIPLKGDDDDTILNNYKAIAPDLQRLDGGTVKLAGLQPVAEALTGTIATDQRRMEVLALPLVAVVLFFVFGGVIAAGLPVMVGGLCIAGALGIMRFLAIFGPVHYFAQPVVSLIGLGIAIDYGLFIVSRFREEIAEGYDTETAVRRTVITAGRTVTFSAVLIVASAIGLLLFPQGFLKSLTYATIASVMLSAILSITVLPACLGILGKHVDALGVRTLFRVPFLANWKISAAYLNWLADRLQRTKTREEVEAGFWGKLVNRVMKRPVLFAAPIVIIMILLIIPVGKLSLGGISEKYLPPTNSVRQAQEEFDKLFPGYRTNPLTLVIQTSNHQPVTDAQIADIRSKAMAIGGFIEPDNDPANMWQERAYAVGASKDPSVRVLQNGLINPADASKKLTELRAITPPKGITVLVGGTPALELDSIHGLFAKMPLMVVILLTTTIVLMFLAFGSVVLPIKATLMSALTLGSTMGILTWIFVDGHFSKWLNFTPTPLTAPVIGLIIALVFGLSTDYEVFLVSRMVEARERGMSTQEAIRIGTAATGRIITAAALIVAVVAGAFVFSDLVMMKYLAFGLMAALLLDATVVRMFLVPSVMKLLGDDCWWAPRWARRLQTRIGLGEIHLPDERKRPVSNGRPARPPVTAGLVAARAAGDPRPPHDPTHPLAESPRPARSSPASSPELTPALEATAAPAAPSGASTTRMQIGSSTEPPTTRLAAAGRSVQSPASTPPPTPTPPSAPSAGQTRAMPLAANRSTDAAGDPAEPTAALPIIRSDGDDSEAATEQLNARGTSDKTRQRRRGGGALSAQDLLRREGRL

For `CC(C)=CCC/C(C)=C/CNCCNC1C2CC3CC(C2)CC1C3` (stereo not drawn) [Compound 8a, N-geranyl-N΄-(2-adamantyl)ethane-1,2-diamine, reference compound], the “Tm (main transition)” value [1] was 50.4 °C, the ΔH [1] was 12.9 kcal/mol and the ΔT1/2 [1] was 2.1 °C. The “Broadening of main transition peak ΔΤ1/2 compared to pure DSPG” value [1] was 0.2–1.6 °C, the “Decrease of Tm compared to DSPG alone” value [1] was 3–4 °C and the half-life [2] was > 5 h. For the same molecule, the MIC (M. tuberculosis HN878; Mycobacterium tuberculosis, HN878, read-out: MIC against M. tuberculosis) was 0.3 to 1 µM (≈ 0.0992 to 0.331 µg/mL), the IC50 (M. tuberculosis HN878; Mycobacterium tuberculosis, HN878, read-out: Mtb HN878 IC50, dose-response curves) was 270 ± 20 nM and the MIC (M. tuberculosis HN878; Mycobacterium tuberculosis, HN878, read-out: Mtb HN878 MIC) was 0.4 µM (≈ 0.132 µg/mL). For the same molecule, the half-life [3] was 5 h, the CC50 (in vitro [4]) was 4100 ± 200 nM and the MIC (M. tuberculosis Erdman; Mycobacterium tuberculosis, ERDMAN, read-out: Mtb Erdman MIC) was 1.8 µM (≈ 0.595 µg/mL). The “Resistance of A309P MmpL3 mutant” value [5] was “not resistant”, the IC50 ([6]; Leishmania mexicana, read-out: L. mexicana IC50, promastigotes) was 500 nM and the IC50 [6, 23] was 730 ± 200 nM. For the same molecule, the “Tm (main transition)” value [7] was 20.6 °C, the ΔH [7] was 5.57 kcal/mol and the ΔT1/2 [7] was 2.6 °C. The “Decrease of Tm compared to DMPC without inhibitor” value [7] was 3–4 °C, the IC50 ([8]; Trypanosoma cruzi, U2OS) was 740 ± 40 nM and the IC50 ([9]; Plasmodium falciparum, read-out: PfABS IC50 (μM ± S.E.), asexual blood stages) was 1.6 µM. The IC50 [9, 24] was 1.58 ± 0.2 µM, the IC50 ([10]; Leishmania donovani) was 2000 ± 100 nM and the IC50 ([11]; Trypanosoma brucei) was 910 ± 30 nM. For the same molecule, the ka1 ([12]; two-state model) was 429.8 M⁻¹ s⁻¹, the ka2 ([12]; two-state model) was 0.005315 s⁻¹ and the kd1 ([12]; two-state model) was 1.098 s⁻¹. The kd2 ([12]; two-state model) was 0.02222 s⁻¹, the MIC (M. tuberculosis H37Rv; Mycobacterium tuberculosis, H37RV, read-out: Mtb H37Rv MIC) was 1.8 µM (≈ 0.595 µg/mL) and the IC50 ([13]; Trypanosoma cruzi) was 6800 ± 2000 nM. For the same molecule, the IC50 (Bacillus subtilis) was 16000 nM, the IC50 (M. smegmatis; Mycolicibacterium smegmatis, read-out: Ms IC50, M. smegmatis) was ~2400 nM and the MIC ([14]; read-out: MIC against M. abscessus) was 22 to 44 µM (≈ 7.27 to 14.5 µg/mL). For the same molecule, the MIC ([14]; read-out: Ma(S) MIC) was 44 µM (≈ 14.5 µg/mL), the half-life [15] was > 5 h and the MIC ([16]; Mycobacteroides abscessus, read-out: Ma(R) MIC) was 22 µM (≈ 7.27 µg/mL). It also gave an IC50 (E. coli; Escherichia coli) of 15000 nM and a viability at 20 µM (in vitro [17]) of 97%.
For `CC(C)=CCCC(C)=CCNCCNC1(C)C2CC3CC(C2)CC1C3` (stereo not drawn) [Compound 8b, N-(3,7-dimethylocta-2,6-dien-1-yl)-N´-(2-methyl-2-adamantanyl)ethane-1,2-diamine], the “Tm (main transition)” value [1] was 50.5 °C, the ΔH [1] was 12.7 kcal/mol and the ΔT1/2 [1] was 2.0 °C. The “Broadening of main transition peak ΔΤ1/2 compared to pure DSPG” value [1] was 0.2–1.6 °C, the “Decrease of Tm compared to DSPG alone” value [1] was 3–4 °C and the “IC50 higher than SQ109, MtHN878” value (M. tuberculosis HN878) was ~ 3 fold. The “Less activity than SQ109 against M. tuberculosis” value (M. tuberculosis HN878; MtbHN878, MtErdman and MtH37Rv) was 2–4 fold, the IC50 (M. tuberculosis HN878; read-out: Mtb HN878 IC50, dose-response curves) was 860 ± 60 nM and the “Mtb HN878 MIC” value (M. tuberculosis HN878; visual inspection) was 0.8 µM. For the same molecule, the “HepG2 % viability @ 20 μM” value [18] was 100%, the “Mtb Erdman MIC” value (M. tuberculosis Erdman) was 3.5 µM and the IC50 [6, 23] was 430 ± 80 nM. The “Tm (main transition)” value [7] was 17.9 °C, the ΔH [7] was 6.12 kcal/mol and the ΔT1/2 [7] was 2.2 °C. The “Decrease of Tm compared to DMPC without inhibitor” value [7] was “ca. 5.6 °C”, the “Intrinsic clearance rate (CLint) relative to SQ109” value [19] was “about twice as large” and the IC50 ([8]; intracellular amastigotes in U2OS host cells) was 770 ± 200 nM. For the same molecule, the IC50 [9, 24] was 0.66 ± 0.18 µM, the “Intrinsic clearance rate (CLint) relative to SQ109” value [20] was “essentially the same” and the IC50 ([10]; promastigotes) was 2000 ± 1000 nM. The IC50 ([11]; bloodstream forms) was 2100 ± 20 nM, the koff ([12]; 1:1 Langmuir binding model) was 0.6882 s⁻¹ and the Kd ([12]; read-out: KD, 1:1 model, 1:1 binding model, from ratio of rate constants) was 188000 nM. For the same molecule, the Kd ([12]; read-out: KD, 2-state, two-state model, from rate constants) was 248000 nM, the ka1 ([12]; two-state model) was 4958 M⁻¹ s⁻¹ and the ka2 ([12]; two-state model) was 0.01084 s⁻¹. For the same molecule, the kd1 ([12]; two-state model) was 1.613 s⁻¹, the kd2 ([12]; two-state model) was 0.03486 s⁻¹ and the “Intrinsic clearance rate (CLint) relative to SQ109” value ([21]; human liver microsomes) was “about twice as large”. The “Stability relative to SQ109 (% remanent at 60 minutes)” value ([21]; human, mice and rat liver microsomes) was 2–4 x, the “Mtb H37Rv MIC” value (M. tuberculosis H37Rv) was 3.5 µM and the IC50 ([13]; epimastigotes) was 3500 ± 1000 nM. For the same molecule, the IC50 (M. smegmatis; read-out: Ms IC50, M. smegmatis) was 4400 ± 500 nM, the “Ma(S) MIC” value [14] was 43 µM and the “Ma(R) MIC” value [16] was 22 µM. The CC50 (U2OS host cells) was 2800 ± 700 nM and the IC50 (E. coli) was 25000 nM.
For `Cc1ccccc1CN1CCC(O)(c2ccc(Cl)c(C(F)(F)F)c2)CC1` [PIPD1], the “Resistance (fold)” value ([22]; MmpL3 inhibitor resistance) is listed as 32–64 x and the “Resistance of strain PIPD1^R1” value [22] is listed as “very high resistance”.

— paper PMC10615177 (ACS infectious diseases, 2023)
